Source: article PMC9950205, “Efficacy, safety, and pharmacokinetics of teduglutide in adult Japanese patients with short bowel syndrome and intestinal failure: two phase III studies with an extension” (Surgery Today, 2022)

Key:
Format in all cases: in vivo, human
[1] = tested on: adult Japanese patients with SBS-IF; test: Parenteral support (PS) requirements in phase III studies TED-C14-004, SHP633-306 and extension SHP633-307, teduglutide 0.05 mg/kg SC once daily; details: for Patients with reduction in weekly PS volume of ≥ 20% from baseline at both weeks 20 and 24: 0.05 mg/kg SC once daily; for Patients whose PS volume decreased by ≥ 20%: 0.05 mg/kg/day
Method: As in the previous STEPS-1 study, patients participating in the core studies (TED-C14-004 and SHP633-306) underwent an optimization (2–8 weeks) and stabilization (4–8 weeks) period before initiation of treatment with teduglutide, during which PS was adjusted with the goal of achieving a stable target urine output of 1.0–2.0 L/day. All participating patients received teduglutide 0.05 mg/kg SC once daily throughout these three studies. PS was adjusted according to an algorithm based on the change from baseline in urine output and other assessments of fluid balance and nutrition status; the PS adjustment algorithm required reductions in PS if the urine output rose more than 10% above baseline. Patients had study visits at weeks 2 and 4, after which visits were held monthly during TED-C14-004 and SHP633-306. During SHP633-307, patients from SHP633-306 had monthly study visits throughout the 24 total months of treatment and then at 3-month intervals thereafter, and patients from TED-C14-004 had visits at 3-month intervals. The end-of-study assessments for SHP633-306 and TED-C14-004 were combined with the first visit of SHP633-307. SHP633-307 is ending soon with the approval of teduglutide in Japan.
(§1) Efficacy endpoints were defined in an analogous manner to previous pivotal studies. These included a clinically meaningful reduction in weekly PS volume of ≥ 20% [17] measured between baseline and both 20 and 24 weeks for TED-C14-004 and SHP633-306, and a continued reduction in weekly PS volume of ≥ 20% from the baseline in core studies at each scheduled visit until the last visit before the interim data cut-off of SHP633-307. Other efficacy endpoints included changes in absolute and percentage weekly PS volumes from the baseline in the core studies at each study visit, the number of days per week of PS, the number of patients who achieved enteral autonomy at the end of treatment or the data cut-off, and the changes in plasma citrulline levels from baseline in the core studies. The primary efficacy data were derived from patient diaries and compared against investigator-prescribed data captured in electronic case report forms.
Efficacy was evaluated between baseline and 24 weeks in TED-C14-004 and SHP633-306 and between baseline and 30 months in […]. Among patients who entered SHP633-307, the total follow-up periods, including the prior studies, were up to 14–57 months of total teduglutide exposure for patients from SHP633-306 and TED-C14-004.
Post hoc analyses of PS volume reductions in patients with Crohn’s disease, with and without a stoma, were performed for TED-C14-004.

[2] = tested on: adult Japanese patients with SBS-IF; test: Plasma citrulline, biomarker of intestinal epithelial mass, change from baseline
Method: Concentrations of plasma citrulline, a biomarker of intestinal epithelial mass, were measured at baseline; weeks 4, 8, 16, and 24; and then every 2 months thereafter up to 30 months of treatment. Patients who continued into SHP633-307 from SHP633-306 had measurements taken at month 12, while those continuing from TED-C14-004 had measurements taken every 3 months.
as §1

[3] = tested on: adult Japanese patients with SBS-IF; test: Anti-teduglutide antibodies in blood samples
Method: In TED-C14-004 and SHP633-306, blood samples for PK evaluations were taken pre-dose and at 0.25, 0.5, 1, 2, 3, 4, 6, 8, 10, and 12 h post-dose during the first 12 weeks of treatment with teduglutide. In SHP633-307, patients continuing from study TED-C14-004 had blood samples for PK evaluations taken pre-dose and at […], and 1, 2, 3, 4, 6, 8, 10, and 12 h post-dose at the first extension study visit. Patients continuing from SHP633-306 had blood samples taken pre-dose and 1 and 2 h post-dose at the first extension study visit. Blood samples to test for the presence of antibodies to teduglutide were taken at baseline and weeks 12 and 24 in SHP633-306; ≥ 14 h after dosing at baseline and weeks 12 and 24, and then every 6 months thereafter in TED-C14-004; and every 3 months in SHP633-307.
Safety analyses included the monitoring of adverse events (AEs), body weight, BMI, vital signs, 12-lead electrocardiogram (ECG), serum biochemistry, hematology, and presence of antibodies to teduglutide. AEs were coded using the Medical Dictionary for Regulatory Activities versions 17.1 (TED-C14-004) and 21.0 (SHP633-306 and SHP633-307). Specifically, AEs were treatment-emergent AEs (TEAEs), defined as any unfavorable and unintended sign (including any abnormal laboratory finding), symptom, or disease that occurred during treatment with teduglutide, whether or not the event was considered to be related to the study drug by the clinical study investigator. AEs were also categorized as mild, moderate, or severe. […] AEs were considered related to treatment with teduglutide, or its administration, based on the investigator's medical judgment.

[4] = 12 months, patients from SHP633-306, n = 4, mean ± SD
[5] = 24 weeks, SHP633-306, n = 6, mean ± SD
[6] = 24 weeks, TED-C14-004, n = 9, mean ± SD
[7] = 30 months, TED-C14-004, n = 7, mean ± SD
[8] = 39 months, patients from TED-C14-004 in extension study, n = 5, mean ± SD
[9] = interim data cut-off, patients from TED-C14-004 in extension study, n = 3, mean ± SD
[10] = last visit before interim data cut-off of SHP633-307, patients from SHP633-306, n = 2, mean ± SD
[11] = post hoc, TED-C14-004, patients with Crohn’s disease, 24 weeks, n = 7, mean ± SD
[12] = post hoc, TED-C14-004, patients with Crohn’s disease, 30 months, n = 6, mean ± SD
[13] = post hoc, TED-C14-004, patients with a stoma, 24 weeks, n = 6, mean ± SD
[14] = post hoc, TED-C14-004, patients with a stoma, 30 months, n = 5, mean ± SD
[15] = post hoc, TED-C14-004, patients without a stoma, 24 weeks, n = 3, mean ± SD
[16] = post hoc, TED-C14-004, patients without a stoma, 30 months, n = 2, mean ± SD
[17] = interim cut-off of the extension study, patients from SHP633-306, mean ± SD
[18] = interim data cut-off of SHP633-307, patients from TED-C14-004, up to 57 months, n = 7, mean ± SD

CC[C@H](C)[C@H](NC(=O)[C@H](Cc1ccccc1)NC(=O)[C@H](CC(=O)O)NC(=O)[C@H](CCCNC(=N)N)NC(=O)[C@H](C)NC(=O)[C@H](C)NC(=O)[C@H](CC(C)C)NC(=O)[C@H](CC(N)=O)NC(=O)[C@H](CC(=O)O)NC(=O)[C@H](CC(C)C)NC(=O)[C@@H](NC(=O)[C@@H](NC(=O)[C@H](CC(N)=O)NC(=O)[C@H](CCSC)NC(=O)[C@H](CCC(=O)O)NC(=O)[C@H](CC(=O)O)NC(=O)[C@H](CO)NC(=O)[C@H](Cc1ccccc1)NC(=O)[C@H](CO)NC(=O)CNC(=O)[C@H](CC(=O)O)NC(=O)CNC(=O)[C@@H](N)Cc1c[nH]cn1)[C@@H](C)O)[C@@H](C)CC)C(=O)N[C@@H](CC(N)=O)C(=O)N[C@@H](Cc1c[nH]c2ccccc12)C(=O)N[C@@H](CC(C)C)C(=O)N[C@H](C(=O)N[C@@H](CCC(N)=O)C(=O)N[C@H](C(=O)N[C@@H](CCCCN)C(=O)N[C@H](C(=O)N[C@H](C(=O)N[C@@H](CC(=O)O)C(=O)O)[C@@H](C)O)[C@@H](C)CC)[C@@H](C)O)[C@@H](C)CC [teduglutide]
PS volume decrease from baseline [1, 4]: 7.3 ± 6.5 L/week | PS volume percent change from baseline [1, 4]: −51.6% ± 28.5% | PS volume decrease from baseline [1, 5]: 3.3 ± 3.6 L/week | PS volume percent change from baseline [1, 5]: −25.6% ± 25.5% | Reduction in PS infusion frequency from baseline [1, 5]: 0.5 ± 1.23 days/week | PS volume decrease from baseline [1, 6]: 4.9 ± 4.8 L/week | PS volume percent change from baseline [1, 6]: −30.1% ± 25.9% | Reduction in PS infusion frequency from baseline [1, 6]: 1.0 ± 1.8 days/week | PS volume decrease from baseline [1, 7]: 8.3 ± 5.9 L/week | PS volume percent change from baseline [1, 7]: −53.5% ± 33.9% | Reduction in PS infusion frequency from baseline [1, 7]: 2.1 ± 3.3 days/week | PS volume decrease from baseline [1, 8]: 7.9 ± 4.5 L/week | PS volume percent change from baseline [1, 8]: −63.6% ± 33.9% | Patients with reduction in weekly PS volume of ≥ 20% from baseline at both weeks 20 and 24 ([1]; SHP633-306, 4 of 7 patients): 57.1% | Patients with reduction in weekly PS volume of ≥ 20% from baseline at both weeks 20 and 24 ([1]; TED-C14-004, 5 of 11 patients): 45.5% | Patients with reduction in weekly PS volume of ≥ 20% from baseline at both weeks 20 and 24 ([1]; TED-C14-004 and SHP633-306 together, 9 of 18 patients): 50% | Patients with ≥ 20% reduction in weekly PS volume from baseline ([1]; after 30 months, TED-C14-004, 6 of 7 patients): 85.7% | Patients whose PS volume decreased by ≥ 20% ([1]; at 24 weeks, TED-C14-004 and SHP633-306): 9/18 | PS volume percent change from baseline ([1]; at data cut-off in SHP633-307, all patients, mean ± SD): −57.08 ± 28.49% | Patients who achieved enteral autonomy ([1]; by 30 months, TED-C14-004, 2 of 8 patients): 25% | Patients whose PS volume decreased by ≥ 20% ([1]; by data cut-off in SHP633-307): all 11 patients | Patients with ≥ 20% reduction in weekly PS volume ([1]; by the end of TED-C14-004, maintained to last visit before data cut-off in the extension study): all patients | Patients who maintained ≥ 20% reduction in PS volume from baseline at each scheduled visit to the last visit before data cut-off ([1]; extension study SHP633-307, patients from SHP633-306): All patients | Patients who achieved enteral autonomy ([1]; first 24 weeks, SHP633-306 and TED-C14-004): No patients | Reduction in PS infusion frequency from baseline ([1]; interim data cut-off of extension study, patients from SHP633-306, mean ± SD): 1.9 ± 2.3 days/week | PS volume decrease from baseline [1, 9]: 11.5 ± 3.7 L/week | PS volume percent change from baseline [1, 9]: −63.57% ± 32.0% | PS volume decrease from baseline [1, 10]: 11.7 ± 8.6 L/week | PS volume percent change from baseline [1, 10]: −76.4% ± 25.9% | PS volume decrease from baseline [1, 11]: 5.3 ± 5.4 L/week | PS volume percent change from baseline [1, 11]: −31.9% ± 28.9% | PS volume decrease from baseline [1, 12]: 9.3 ± 5.8 L/week | PS volume percent change from baseline [1, 12]: −59.4% ± 32.9% | PS volume decrease from baseline [1, 13]: 6.1 ± 5.5 L/week | PS volume percent change from baseline [1, 13]: −35.3% ± 30.1% | PS volume decrease from baseline [1, 14]: 10.7 ± 5.4 L/week | PS volume percent change from baseline [1, 14]: −65.2% ± 33.2% | PS volume decrease from baseline [1, 15]: 2.7 ± 1.8 L/week | PS volume percent change from baseline [1, 15]: −19.6% ± 13.1% | PS volume decrease from baseline [1, 16]: 2.5 ± 0.2 L/week | PS volume percent change from baseline [1, 16]: −24.3% ± 8.7% | Maintenance of enteral autonomy ([1]; the 2 patients of TED-C14-004 with enteral autonomy, throughout SHP633-307 until interim data cut-off): remained off PS | Reduction in PS infusion frequency from baseline ([1]; up to the end of the extension study, patients from TED-C14-004, mean ± SD): 2.2 ± 3.3 days/week | Plasma citrulline increase from baseline [2, 5]: 14.3 ± 10.9 µM | Plasma citrulline percent increase from baseline [2, 5]: 106.3% ± 114.9% | Plasma citrulline increase from baseline [2, 6]: 15.0 ± 17.4 µM | Plasma citrulline percent increase from baseline [2, 6]: 86.9% ± 112.3% | Plasma citrulline increase from baseline [2, 7]: 28.3 ± 24.1 µM | Plasma citrulline percent increase from baseline [2, 7]: 135.0% ± 84.2% | Plasma citrulline increase from baseline [2, 17]: 13.0 ± 5.6 µM | Plasma citrulline percent increase from baseline [2, 17]: 79.1% ± 33.5% | Plasma citrulline increase from baseline [2, 18]: 19.2 ± 18.9 µM | Plasma citrulline percent increase from baseline [2, 18]: 103.6% ± 88.7% | Patients positive for anti-teduglutide antibodies ([3]; 24 weeks, 5 out of 14 patients (n = 4 TED-C14-004; n = 1 SHP633-306)): 35.7% | Patients with low titers of anti-teduglutide antibodies as well as neutralizing antibodies ([3]; 39 months, patients from TED-C14-004 in SHP633-307, two patients): 40.0% | Anti-teduglutide antibodies ([3]; 51 or 54 months, n = 7): No anti-teduglutide antibodies were detected | Patients positive at 24 weeks who also tested positive up to 22 months ([3]; TED-C14-004): Three of the 4 patients | Association between anti-teduglutide antibodies and a lack of efficacy ([3]; all studies): no association | Patients positive for antibodies to teduglutide ([3]; month 12, SHP633-307 patients from SHP633-306, 2 out of 4): 50.0% | Association of anti-teduglutide antibodies with AEs of hypersensitivity or teduglutide-related hypersensitivity reaction ([3]; patients in whom antibodies were detected): no association
